Each structure is given as a SMILES string. Where two headings read alike, the source gives them in different places. Positions of bridges follow the written chain, without caps; N, C: chain ends. Residues, ends and D or L forms follow the SMILES beside them.

Common to all, as to assay: cell-based
The target in one assay is hNav1.7 (Homo sapiens, UniProt Q15858). In kind it is cell-based.
The target of the next assay is hNav1.3 (Homo sapiens, UniProt Q9NY46). To be noted: IonWorks Quattro, read-out: IWQ Use Nav1.3. On the technique in general: The patch-clamp technique gives a direct electrical read-out from membranes.
The target of another assay is hNav1.5 (Homo sapiens, UniProt Q14524).

hNav1.3, sequence (Q9NY46 whole entry, looked up): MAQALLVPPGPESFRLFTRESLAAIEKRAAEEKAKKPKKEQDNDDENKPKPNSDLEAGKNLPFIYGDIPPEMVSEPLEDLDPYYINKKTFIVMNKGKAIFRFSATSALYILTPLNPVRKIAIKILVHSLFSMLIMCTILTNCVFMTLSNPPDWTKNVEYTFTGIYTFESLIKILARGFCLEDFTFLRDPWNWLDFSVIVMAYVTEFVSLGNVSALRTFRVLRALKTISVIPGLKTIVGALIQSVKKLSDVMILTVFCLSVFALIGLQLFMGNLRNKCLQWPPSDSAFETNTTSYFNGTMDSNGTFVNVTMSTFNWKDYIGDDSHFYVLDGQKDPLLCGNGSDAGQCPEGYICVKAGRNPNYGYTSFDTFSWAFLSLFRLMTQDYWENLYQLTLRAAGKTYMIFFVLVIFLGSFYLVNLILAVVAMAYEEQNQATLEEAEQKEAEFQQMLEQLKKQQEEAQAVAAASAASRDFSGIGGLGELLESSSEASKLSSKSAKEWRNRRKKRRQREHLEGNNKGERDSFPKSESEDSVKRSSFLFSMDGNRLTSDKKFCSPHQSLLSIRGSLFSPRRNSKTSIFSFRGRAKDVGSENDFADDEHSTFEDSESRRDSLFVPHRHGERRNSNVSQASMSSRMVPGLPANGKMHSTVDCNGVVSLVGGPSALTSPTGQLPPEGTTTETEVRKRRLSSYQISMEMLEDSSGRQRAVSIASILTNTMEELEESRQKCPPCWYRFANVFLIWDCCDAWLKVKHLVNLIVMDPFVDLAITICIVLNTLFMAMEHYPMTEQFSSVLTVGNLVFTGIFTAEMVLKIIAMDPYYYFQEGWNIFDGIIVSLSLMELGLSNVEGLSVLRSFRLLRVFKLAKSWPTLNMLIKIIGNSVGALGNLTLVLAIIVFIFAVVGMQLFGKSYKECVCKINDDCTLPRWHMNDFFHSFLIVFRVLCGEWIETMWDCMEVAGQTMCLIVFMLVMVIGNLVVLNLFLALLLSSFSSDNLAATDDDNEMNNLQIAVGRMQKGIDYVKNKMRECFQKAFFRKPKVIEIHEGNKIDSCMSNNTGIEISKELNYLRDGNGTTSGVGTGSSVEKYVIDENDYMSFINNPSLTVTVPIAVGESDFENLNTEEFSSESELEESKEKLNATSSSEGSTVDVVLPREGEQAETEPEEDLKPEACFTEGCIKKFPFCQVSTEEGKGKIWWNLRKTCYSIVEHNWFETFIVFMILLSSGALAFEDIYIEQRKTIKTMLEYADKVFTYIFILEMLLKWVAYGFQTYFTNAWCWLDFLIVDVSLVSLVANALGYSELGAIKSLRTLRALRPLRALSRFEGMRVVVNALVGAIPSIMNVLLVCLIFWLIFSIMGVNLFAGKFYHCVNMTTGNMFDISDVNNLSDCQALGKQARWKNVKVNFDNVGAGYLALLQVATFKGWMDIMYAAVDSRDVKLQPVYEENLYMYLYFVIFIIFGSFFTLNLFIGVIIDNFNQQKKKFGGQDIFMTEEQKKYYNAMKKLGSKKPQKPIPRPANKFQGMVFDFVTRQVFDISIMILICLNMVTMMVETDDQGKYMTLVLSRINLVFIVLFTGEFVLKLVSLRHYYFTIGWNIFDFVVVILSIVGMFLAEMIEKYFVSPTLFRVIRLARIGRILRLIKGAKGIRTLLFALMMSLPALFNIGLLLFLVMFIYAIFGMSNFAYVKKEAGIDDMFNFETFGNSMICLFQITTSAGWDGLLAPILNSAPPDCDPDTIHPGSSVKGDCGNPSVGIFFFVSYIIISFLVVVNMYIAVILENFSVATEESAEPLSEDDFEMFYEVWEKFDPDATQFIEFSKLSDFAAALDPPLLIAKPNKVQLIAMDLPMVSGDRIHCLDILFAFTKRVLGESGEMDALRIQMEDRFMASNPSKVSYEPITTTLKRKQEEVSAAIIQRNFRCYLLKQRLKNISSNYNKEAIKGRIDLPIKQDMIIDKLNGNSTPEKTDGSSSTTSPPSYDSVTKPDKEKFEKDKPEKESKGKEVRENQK
hNav1.7, sequence (Q15858 whole entry, looked up): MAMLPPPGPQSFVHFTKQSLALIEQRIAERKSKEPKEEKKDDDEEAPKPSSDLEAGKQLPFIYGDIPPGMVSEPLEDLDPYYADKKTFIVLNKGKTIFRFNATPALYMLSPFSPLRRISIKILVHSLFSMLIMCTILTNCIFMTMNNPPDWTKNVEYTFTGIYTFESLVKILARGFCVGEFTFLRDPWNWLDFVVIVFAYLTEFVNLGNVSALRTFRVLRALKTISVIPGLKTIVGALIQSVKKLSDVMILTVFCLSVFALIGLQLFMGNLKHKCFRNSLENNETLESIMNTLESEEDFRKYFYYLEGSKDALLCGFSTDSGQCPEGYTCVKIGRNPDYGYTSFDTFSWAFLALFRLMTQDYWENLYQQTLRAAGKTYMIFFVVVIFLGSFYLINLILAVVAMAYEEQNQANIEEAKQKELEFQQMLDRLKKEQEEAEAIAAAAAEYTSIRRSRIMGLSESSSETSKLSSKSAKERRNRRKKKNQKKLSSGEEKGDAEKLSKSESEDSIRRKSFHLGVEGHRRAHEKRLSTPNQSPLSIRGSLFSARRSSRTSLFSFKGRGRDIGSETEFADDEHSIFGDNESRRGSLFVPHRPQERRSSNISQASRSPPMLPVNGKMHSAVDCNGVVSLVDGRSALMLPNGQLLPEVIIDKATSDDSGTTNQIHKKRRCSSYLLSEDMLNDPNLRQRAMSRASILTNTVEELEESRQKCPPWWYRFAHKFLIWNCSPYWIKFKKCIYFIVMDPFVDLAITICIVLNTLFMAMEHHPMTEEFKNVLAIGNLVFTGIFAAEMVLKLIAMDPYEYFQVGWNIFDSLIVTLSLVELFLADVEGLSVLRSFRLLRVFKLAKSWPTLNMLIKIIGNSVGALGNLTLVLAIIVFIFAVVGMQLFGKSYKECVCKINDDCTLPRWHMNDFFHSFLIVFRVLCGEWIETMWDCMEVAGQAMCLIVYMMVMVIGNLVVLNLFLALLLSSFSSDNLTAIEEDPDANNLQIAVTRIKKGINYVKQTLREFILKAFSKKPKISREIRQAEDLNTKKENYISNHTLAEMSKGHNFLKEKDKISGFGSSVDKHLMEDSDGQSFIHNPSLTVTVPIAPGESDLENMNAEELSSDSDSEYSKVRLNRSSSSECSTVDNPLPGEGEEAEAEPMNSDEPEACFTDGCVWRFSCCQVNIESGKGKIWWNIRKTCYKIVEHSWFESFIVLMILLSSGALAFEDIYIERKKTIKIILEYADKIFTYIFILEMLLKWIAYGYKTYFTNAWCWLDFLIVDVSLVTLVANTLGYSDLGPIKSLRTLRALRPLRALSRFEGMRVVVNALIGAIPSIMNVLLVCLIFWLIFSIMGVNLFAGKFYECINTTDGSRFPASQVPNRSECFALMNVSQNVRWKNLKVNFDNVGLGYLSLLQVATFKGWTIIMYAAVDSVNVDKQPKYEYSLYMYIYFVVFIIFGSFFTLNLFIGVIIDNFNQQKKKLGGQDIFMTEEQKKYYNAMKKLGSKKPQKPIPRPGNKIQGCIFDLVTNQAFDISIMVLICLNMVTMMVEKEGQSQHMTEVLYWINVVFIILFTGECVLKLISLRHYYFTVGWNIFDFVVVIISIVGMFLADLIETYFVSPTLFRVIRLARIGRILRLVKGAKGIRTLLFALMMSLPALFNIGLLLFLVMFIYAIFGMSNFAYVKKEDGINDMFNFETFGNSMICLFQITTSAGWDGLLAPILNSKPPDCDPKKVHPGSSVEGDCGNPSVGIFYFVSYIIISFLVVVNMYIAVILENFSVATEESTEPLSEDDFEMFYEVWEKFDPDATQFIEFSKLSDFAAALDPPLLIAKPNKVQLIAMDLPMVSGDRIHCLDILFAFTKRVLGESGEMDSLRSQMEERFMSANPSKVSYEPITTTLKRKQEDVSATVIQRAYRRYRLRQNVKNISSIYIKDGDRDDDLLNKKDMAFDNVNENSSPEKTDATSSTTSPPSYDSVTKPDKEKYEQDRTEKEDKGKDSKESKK

Turning to `CC[C@H](C)[C@@H]1NC(=O)[C@@H]2CSSC[C@@H]3NC(=O)[C@H](C(C)C)NC(=O)[C@H](CC(C)C)NC(=O)[C@H](Cc4c[nH]c5ccccc45)NC(=O)[C@@H]4CCCN4C(=O)[C@H](CCCNC(=N)N)NC(=O)[C@H](CSSC[C@H](NC(=O)[C@@H](N)CC(=O)O)C(=O)N[C@@H](CC(C)C)C(=O)NCC(=O)N[C@@H](Cc4ccccc4)C(=O)N[C@@H](CCSC)C(=O)N[C@@H](CCCNC(=N)N)C(=O)N[C@@H](CCCCN)C(=O)N2)NC(=O)[C@H](CSSC[C@@H](C(=O)N[C@@H](CCCCN)C(=O)N[C@@H](Cc2ccc(O)cc2)C(=O)N[C@H](C(=O)N[C@@H](Cc2ccccc2)C(N)=O)C(C)C)NC(=O)[C@H](Cc2c[nH]c4ccccc24)NC(=O)[C@H](CCCCN)NC(=O)[C@H](Cc2cnc[nH]2)NC(=O)[C@H]([C@@H](C)O)NC(=O)[C@H](CCCNC(=N)N)NC(=O)[C@H](CO)NC3=O)NC(=O)[C@H](CCCCN)NC(=O)[C@H](CC(=O)O)NC(=O)[C@H](CC(N)=O)NC(=O)[C@H](CC(=O)O)NC(=O)[C@@H]2CCCN2C1=O` [compound 175] (H-DCLGFMRKCIPDNDKCCRPWLVCSRTHKWCKYVF-NH2; disulfide 2-17, 9-23, 16-30), the IC50 at hNav1.7 (IonWorks Quattro, Use, read-out: IWQ Use Nav1.7) was 50 nM; on hNav1.3 (Use) it was 20 nM; at hNav1.5 (IonWorks Quattro, Use, read-out: IWQ Use Nav1.5), 7.39 µM.
With `CC[C@H](C)[C@@H]1NC(=O)[C@@H]2CSSC[C@@H]3NC(=O)[C@H](C(C)C)NC(=O)[C@H](Cc4c[nH]c5ccccc45)NC(=O)[C@H](CC(N)=O)NC(=O)[C@@H]4CCCN4C(=O)[C@H](CCCNC(=N)N)NC(=O)[C@H](CSSC[C@H](NC(=O)[C@@H](N)CC(=O)O)C(=O)N[C@@H](CC(C)C)C(=O)NCC(=O)N[C@@H](Cc4ccccc4)C(=O)N[C@@H](CCSC)C(=O)N[C@@H](CCCNC(=N)N)C(=O)N[C@@H](CCCCN)C(=O)N2)NC(=O)[C@H](CSSC[C@@H](C(=O)N[C@@H](CCCCN)C(=O)N[C@@H](Cc2ccc(O)cc2)C(=O)N[C@H](C(=O)N[C@@H](Cc2ccccc2)C(N)=O)C(C)C)NC(=O)[C@H](Cc2c[nH]c4ccccc24)NC(=O)[C@H](CCCCN)NC(=O)[C@H](Cc2cnc[nH]2)NC(=O)[C@H]([C@@H](C)O)NC(=O)[C@H](CCCNC(=N)N)NC(=O)[C@H](CO)NC3=O)NC(=O)[C@H](CCCCN)NC(=O)[C@H](CC(=O)O)NC(=O)[C@H](CC(N)=O)NC(=O)[C@H](CC(=O)O)NC(=O)[C@@H]2CCCN2C1=O` [compound 176] (H-DCLGFMRKCIPDNDKCCRPNWVCSRTHKWCKYVF-NH2; disulfide 2-17, 9-23, 16-30), the IC50 at hNav1.7 amounted to 100 nM; on hNav1.3 (Use) it was 50 nM; at hNav1.5 (IWQ Use Nav1.5 (μM)) it was 13.8 µM.
As for `CC[C@H](C)[C@@H]1NC(=O)[C@@H]2CSSC[C@@H]3NC(=O)[C@H](Cc4c[nH]c5ccccc45)NC(=O)[C@H](CC(C)C)NC(=O)[C@H](CC(N)=O)NC(=O)[C@@H]4CCCN4C(=O)[C@H](CCCNC(=N)N)NC(=O)[C@H](CSSC[C@H](NC(=O)[C@@H](N)CC(=O)O)C(=O)N[C@@H](CC(C)C)C(=O)NCC(=O)N[C@@H](Cc4ccccc4)C(=O)N[C@@H](CCSC)C(=O)N[C@@H](CCCNC(=N)N)C(=O)N[C@@H](CCCCN)C(=O)N2)NC(=O)[C@H](CSSC[C@@H](C(=O)N[C@@H](CCCCN)C(=O)N[C@@H](Cc2ccc(O)cc2)C(=O)N[C@H](C(=O)N[C@@H](Cc2ccccc2)C(N)=O)C(C)C)NC(=O)[C@H](Cc2c[nH]c4ccccc24)NC(=O)[C@H](CCCCN)NC(=O)[C@H](Cc2cnc[nH]2)NC(=O)[C@H]([C@@H](C)O)NC(=O)[C@H](CCCNC(=N)N)NC(=O)[C@H](CO)NC3=O)NC(=O)[C@H](CCCCN)NC(=O)[C@H](CC(=O)O)NC(=O)[C@H](CC(N)=O)NC(=O)[C@H](CC(=O)O)NC(=O)[C@@H]2CCCN2C1=O` [compound 177] (H-DCLGFMRKCIPDNDKCCRPNLWCSRTHKWCKYVF-NH2; disulfide 2-17, 9-23, 16-30), the IC50 against hNav1.7 turned out to be 30 nM; on hNav1.3 (Use), 60 nM; against hNav1.5 (IWQ Use Nav1.5 (μM)), 8.02 µM.
With `CC[C@H](C)[C@@H]1NC(=O)[C@@H]2CSSC[C@@H]3NC(=O)[C@H](C(C)C)NC(=O)[C@H](CC(C)C)NC(=O)[C@H](CC(N)=O)NC(=O)[C@@H]4CCCN4C(=O)[C@H](CCCNC(=N)N)NC(=O)[C@H](CSSC[C@H](NC(=O)[C@@H](N)CC(=O)O)C(=O)N[C@@H](CC(C)C)C(=O)NCC(=O)N[C@@H](Cc4ccccc4)C(=O)N[C@@H](CCSC)C(=O)N[C@@H](CCCNC(=N)N)C(=O)N[C@@H](CCCCN)C(=O)N2)NC(=O)[C@H](CSSC[C@@H](C(=O)N[C@@H](CCCCN)C(=O)N[C@@H](Cc2ccc(O)cc2)C(=O)N[C@H](C(=O)N[C@@H](Cc2ccccc2)C(N)=O)C(C)C)NC(=O)[C@H](Cc2c[nH]c4ccccc24)NC(=O)[C@H](CCCCN)NC(=O)[C@H](Cc2cnc[nH]2)NC(=O)[C@H](Cc2c[nH]c4ccccc24)NC(=O)[C@H](CCCNC(=N)N)NC(=O)[C@H](CO)NC3=O)NC(=O)[C@H](CCCCN)NC(=O)[C@H](CC(=O)O)NC(=O)[C@H](CC(N)=O)NC(=O)[C@H](CC(=O)O)NC(=O)[C@@H]2CCCN2C1=O` [compound 178] (H-DCLGFMRKCIPDNDKCCRPNLVCSRWHKWCKYVF-NH2; disulfide 2-17, 9-23, 16-30), the IC50 on hNav1.7 (Table 22, IonWorks Quattro, use, […], read-out: IWQ Use Nav1.7) turned out to be 30 nM; at hNav1.3 (Table 22, use, […]) it was 20 nM; on hNav1.5 (Table 22, IonWorks Quattro, use, […], read-out: IWQ Use Nav1.5) it was 5.84 µM.
Regarding `CC[C@H](C)[C@@H]1NC(=O)[C@@H]2CSSC[C@@H]3NC(=O)[C@H](C(C)C)NC(=O)[C@H](CC(C)C)NC(=O)[C@H](CC(N)=O)NC(=O)[C@@H]4CCCN4C(=O)[C@H](CCCNC(=N)N)NC(=O)[C@H](CSSC[C@H](NC(=O)[C@@H](N)CC(=O)O)C(=O)N[C@@H](CC(C)C)C(=O)NCC(=O)N[C@@H](Cc4ccccc4)C(=O)N[C@@H](CCSC)C(=O)N[C@@H](CCCNC(=N)N)C(=O)N[C@@H](CCCCN)C(=O)N2)NC(=O)[C@H](CSSC[C@@H](C(=O)N[C@@H](Cc2c[nH]c4ccccc24)C(=O)N[C@@H](Cc2ccc(O)cc2)C(=O)N[C@H](C(=O)N[C@@H](Cc2ccccc2)C(N)=O)C(C)C)NC(=O)[C@H](Cc2c[nH]c4ccccc24)NC(=O)[C@H](CCCCN)NC(=O)[C@H](Cc2c[nH]cn2)NC(=O)[C@H]([C@@H](C)O)NC(=O)[C@H](CCCNC(=N)N)NC(=O)[C@H](CO)NC3=O)NC(=O)[C@H](CCCCN)NC(=O)[C@H](CC(=O)O)NC(=O)[C@H](CC(N)=O)NC(=O)[C@H](CC(=O)O)NC(=O)[C@@H]2CCCN2C1=O` [compound 179] (H-DCLGFMRKCIPDNDKCCRPNLVCSRTHKWCWYVF-NH2; disulfide 2-17, 9-23, 16-30), the IC50 is 23600 nM at hNav1.7 (Table 25, IonWorks Quattro, use, […], read-out: IWQ Use Nav1.7); 10200 nM on hNav1.3 (Table 25, use, […]); 10.8 µM at hNav1.5 (Table 25, IonWorks Quattro, use, […], read-out: IWQ Use Nav1.5).

For the origin of these results see patent US9340590B2 (priority 2011, dated 2016).
